Source: patent US20210275521A1, “OXABICYCLOHEPTANES FOR TREATMENT OF SECONDARY ACUTE MYELOID LEUKEMIA” (Lixte Biotechnology, Inc., priority 2017, published 2021)

How the values were obtained:
SKM-1 = assay: MTT cytotoxicity assay, SKM-1 (sAML cell line); format: cell-based, human; conditions: for SKM-1 cell viability: 24h incubation
Protocol: (§1) The following five human leukemia cell lines were obtained from the Shanghai Institute of Cell Biology (Shanghai, China): Kasumi-1, HL-60, THP-1, U937 and K562. The SICM-1 leukemia cell line was acquired from the Health Science Research Resources Bank (Osaka, Japan), established from a patient with MDS that had progressed to myelomonocytic leukemia.
(§2) Cells were seeded into 96-well microtiter plates (Nunc, Roskilde, Denmark) at densities of either 1×10^5 cells/ml (established cell lines) or 5×10^5 cells/ml (primary AML cells). […] After exposure, 20 μl of 3-(4, 5-dimethylthiazol-2-yl)-2, 5-diphenylterazolium bromide solution (MTT, Sigma-Aldrich) was added to each well. The plates were then incubated for 4 h at 37° C. The MTT-containing solution was then aspirated away, 200 μI DMSO added to each well, and absorbance at 570 nm was measured.

SKM-1 xenografts = assay: In vivo tumorigenicity assay, SKM-1 xenograft; parameters: species or system NOD/SCID mice; conditions: 2 mg/kg i.p. every other day for 14d, vs control
Protocol: All animal studies were performed according to the guidelines of Animal Care and Use Committee of the First Affiliated Hospital of Zhejiang University and met the NIH guidelines for the care and use of laboratory animals. And all animal studies were approved by IACUC committee of the First Affiliated Hospital of Zhejiang University. Nonobese diabetic/severe combined immunodeficiency (NOD/SCID) mice aged 6 weeks were purchased from the Shanghai Experimental Animal Center of the Chinese Academy of Sciences (Shanghai, China). SKM-1 cells (5×106 in 100 μl PBS) were injected subcutaneously into the right flank of each mouse. By 10-14d, when the tumor volumes had reached 90-110 mm3, the mice were randomly divided into four groups: DNR LB100, DNR only, LB100 only, and control. Mice were injected intraperitoneally (i.p.) with 2 mg/kg DNR and/or 2 mg/kg LB100, every other day for a total of 14d. Control mice were injected with an equal volume of PBS. Tumor size was monitored every 3d based on caliper measurements of the two perpendicular diameters; tumor volume was calculated using the formula V=(width′×length×it/6).

K562 = assay: MTT cytotoxicity assay, K562; format: cell-based; conditions: Homo sapiens; K562, at 4 h after treatment
Protocol: as §1
(§3) Cells were seeded into 96-well microtiter plates (Nunc, Roskilde, Denmark) at densities of either 1×10^5 cells/ml (established cell lines) or 5×10^5 cells/ml (primary AML cells). Cultures were exposed to different drugs for 24 h. After exposure, 20 μl of 3-(4, 5-dimethylthiazol-2-yl)-2, 5-diphenylterazolium bromide solution (MTT, Sigma-Aldrich) was added to each well. The plates were then incubated for 4 h at 37° C. The MTT-containing solution was then aspirated away, 200 μI DMSO added to each well, and absorbance at 570 nm was measured.

HL-60 = assay: MTT cytotoxicity assay, HL-60; format: cell-based; conditions: Homo sapiens; HL-60, at 4 h after treatment
Protocol: as §1, §2

SKM-1 cells [1] = assay: Hoechst staining of nuclear morphology; format: cell-based, human; conditions: 24 h, varying doses
Protocol: SKM-1 cells were treated with LB100 for 24 h. Cells were then permeabilized with 0.5% Triton X-100 for 30 min, washed with PBS, stained with 10 μg/ml Hoechst for 30 min, and washed with PBS. Nuclear morphology was observed immediately after using a BX51 fluorescence microscope (Olympus, Tokyo, Japan).

THP-1 = assay: MTT cytotoxicity assay, THP-1; format: cell-based; conditions: Homo sapiens; THP-1, at 4 h after treatment
Protocol: as §1, §2

SKM-1 cells [2] = assay: Annexin V and propidium iodide flow-cytometry apoptosis assay; format: cell-based, human; conditions: for rate of apoptosis: LB100 10 μM 24 h
Protocol: Cells were seeded into 6-well plates, and treated for 24h at 37° C. with different concentrations of LB100 (0, 1.25, 2.5, 5,10 μM). After washing with PBS, aliquots of the cells were resuspended in binding buffer, and stained with 5 μl Annexin V and 5 μl propidium iodide (Biouniquer, Nanjing, China) according to the manufacturer's instructions. Fluorescence-activated cell sorting (FACS) was then performed immediately after staining.
Cells (5×10^5 cells/well) were pre-incubated for 3 h at 37° C. in the presence or absence of 20 KM of the pan-caspase inhibitor z-VAD-fmk (R&D Systems, MN, USA) in DMSO. Cells were then treated with LB100 for 24h, and processed in the Annexin V-binding assay as described above.

miR-181b-1 [3] = assay: Quantitation of miR-181b-1 by real-time quantitative RT-PCR; format: cell-based, human; conditions: SKM-1, normalized to U6 RNA, vs control
Text: Total miRNA was extracted from 1×10^6 SKM-1 cells using the RNAiso kit for small RNA (TaKaRa, Japan), and reverse-transcribed using the One Step PrimeScript miRNA cDNA Synthesis Kit (TaKaRa, Japan). The resulting cDNA was quantified using the iCycler Real-time PCR Detection System (BioRad, Calif., USA) and SYBR Green (Takara, Japan). The expression of miR-181b-1 was quantified relative to the expression of human U6 small nuclear RNA using the 2-°° c.′ method.

PP2A = target: T1, PP2A (Homo sapiens, UniProt P67775); assay: PP2A phosphatase activity assay in SKM-1 cells; format: cell-based; conditions: 10 μM LB100, SKM-1 cells
T1 construct: endogenous in cells; host or cells: SKM-1 cells (lysate, immunoprecipitated with Millipore kit)
T1 sequence (P67775 whole entry): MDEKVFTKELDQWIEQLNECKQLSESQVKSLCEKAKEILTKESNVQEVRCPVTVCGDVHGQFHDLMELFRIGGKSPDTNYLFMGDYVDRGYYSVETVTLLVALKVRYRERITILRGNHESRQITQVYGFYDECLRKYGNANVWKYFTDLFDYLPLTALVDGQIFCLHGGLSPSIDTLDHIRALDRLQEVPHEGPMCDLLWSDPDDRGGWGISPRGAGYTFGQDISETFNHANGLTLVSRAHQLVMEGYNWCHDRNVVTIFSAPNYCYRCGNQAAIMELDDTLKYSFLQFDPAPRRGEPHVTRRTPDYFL
T1 sequence (P30153 2-589 partner limits assumed): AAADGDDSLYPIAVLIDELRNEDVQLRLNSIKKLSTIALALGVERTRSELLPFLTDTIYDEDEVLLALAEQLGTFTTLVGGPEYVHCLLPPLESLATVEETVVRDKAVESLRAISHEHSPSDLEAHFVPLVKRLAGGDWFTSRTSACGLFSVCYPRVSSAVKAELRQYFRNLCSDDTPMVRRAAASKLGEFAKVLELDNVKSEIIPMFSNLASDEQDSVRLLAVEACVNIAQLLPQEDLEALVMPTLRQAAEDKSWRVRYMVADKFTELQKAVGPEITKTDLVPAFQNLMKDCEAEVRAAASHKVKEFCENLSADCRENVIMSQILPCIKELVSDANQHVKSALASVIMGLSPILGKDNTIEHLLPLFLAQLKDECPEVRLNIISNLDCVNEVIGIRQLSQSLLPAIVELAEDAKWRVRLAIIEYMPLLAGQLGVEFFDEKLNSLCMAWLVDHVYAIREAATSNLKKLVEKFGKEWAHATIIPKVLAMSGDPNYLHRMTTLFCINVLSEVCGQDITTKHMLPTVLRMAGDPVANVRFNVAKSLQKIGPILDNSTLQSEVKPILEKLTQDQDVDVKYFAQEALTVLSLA
Protocol: 1×IV SKM-1 cells were seeded into 6-well microtiter plates and treated with different concentrations of LB100 (0, 1.25, 2.5, 5, 10 μNI). […] Cell lysate was sonicated for 10 seconds and then centrifuged at 20,000 g for 15 minutes. Supernatant was then assayed with the PP2A Immunoprecipitation Phosphatase Assay Kit (Millipore, Mass., USA).

Kasumi-1 = assay: MTT cytotoxicity assay, Kasumi-1; format: cell-based; conditions: Homo sapiens; Kasumi-1, at 4 h after treatment
Protocol: as §1, §3

U937 = assay: MTT cytotoxicity assay, U937; format: cell-based; conditions: Homo sapiens, U-937; U937, at 4 h after treatment
Protocol: as §1, §2

SKM-1 cells [4] = assay: Leukemia colony-forming assay; format: cell-based, human; conditions: 7 days in methylcellulose medium
Protocol: LB100-treated SKM-1 cells were seeded in a methylcellulose medium and incubated for 7 d at 37° C. The number of leukemia colony-forming units (CFU-Ls) containing >50 cells were determined manually under a light microscope (Olympus).

SKM-1 cells [5] = assay: Western blotting of SKM-1 cells; format: cell-based, human
Protocol: Cells were washed twice in PBS and lysed in 10 mM Tris, 1 mM ethylenediaminetetra-acetic acid (EDTA), 10 mM KCl, 0.3% Triton, and 0.1 mM phenylmethanesulfonyl fluoride (PMSF). Equal amounts of protein (30-50 μg) were separated on 8-12% SDS-polyacrylamide gels, and transferred to polyvinylidene fluoride (PVDF) membranes. Membranes were blocked with 5% non-fat milk and incubated overnight with the appropriate primary antibody at manufacturer-specified dilutions. Primary monoclonal antibodies were against I3-ACTIN (Santa Cruz Biotechnology, CA, USA); CDCl25C, p-CDCl25C, CDCl2, p-CDCl2, PP2A-A, PP2A-B, PP2A-C (Epitomics, USA); AKT, p-AKT, PARP, RAS, p-MEK, p-ERK, Raf, p-CamKII, Bc.1-2 and p-Bd-2 (Cell Signaling Technology, MA, USA).
Next, the membranes were washed three times in TBS-T buffer (10 mm Tris-HCl, pH 8, 150 mm NaCl, 0.1% Tween 20), and incubated for 1 h with the corresponding horseradish peroxidase (HRP)-conjugated secondary antibody at 1:5,000 dilution. Bound secondary antibody was detected using an enhanced chemiluminescence (ECL) system (Pierce Biotechnology, IL, USA).

Bcl-2 = assay: Immunohistochemistry staining of SKM-1 xenograft for Bcl-2; parameters: species or system NOD/SCID mice; conditions: in-vivo
Protocol: Immunohistochemical staining was performed on the paraffin-embedded sections. Tissue sections were dewaxed and rehydrated before performing antigen retrieval. Anti-BCL-2 (Cell Signaling Technology, MA, USA) were applied at 1:100 dilution in PBS to incubate slides overnight at 4° C., and incubated with an HRP-conjugated secondary antibody for 1 hat room temperature. DAB was used for color development, and dark brown staining was considered positive. All slides were photographed with optical microscopy Olympus BX51.

SKM-1 cells [6] = assay: Cell cycle analysis by flow cytometry; format: cell-based, human; conditions: 12 h exposure at 5 μM
Protocol: Cells were collected after being fixed overnight in 75% ethanol at −20° C. Fixed cells were washed twice with PBS, then incubated for 30 min with RNase A and propidium iodide (10 μg/ml). Cell cycle analysis was performed using a BDL SRII Flow Cytometer and FACSDiva Software (BD Bioscience, Franklin Lakes, USA). Raw data was analyzed using ModFit LT 3.2 software (Verity Software House, Topsham, USA).

miR-181b-1 [7] = assay: MicroRNA microarray analysis; format: cell-based, human; conditions: SKM-1, exposure 12h
Text: Total RNA was extracted from SKM-1 and LB100-treated-SKM-1 cells using the RNeasy mini kit (Qiagen, Calif., USA) according to the manufacturer's instructions. The miRNA microarray analysis was done by KangChen (Shanghai, China).

COc1cccc2c1C(=O)c1c(O)c3c(c(O)c1C2=O)C[C@@](O)(C(C)=O)C[C@@H]3O[C@H]1C[C@H](N)[C@H](O)[C@H](C)O1 [DNR, Daunorubicin, reference compound]
SKM-1 cell viability (SKM-1): significantly diminished in a dose-dependent manner | tumor volume (SKM-1 xenografts): sharp decrease

CN1CCN(C(=O)C2C(C(=O)O)[C@H]3CC[C@@H]2O3)CC1 (stereo partly drawn) [LB100]
SKM-1 cell viability (SKM-1): significantly diminished in a dose-dependent manner | IC50 (SKM-1; Homo sapiens, SKM-1, at 4 h after treatment): 5.35 µM | IC50 (K562): 7 µM | IC50 (HL-60): 3.36 µM | nuclear morphology after Hoechst staining (SKM-1 cells [1]): increased amounts of condensed, pyknotic nudei | IC50 (THP-1): 13.5 µM | fraction of apoptotic sAML cells (SKM-1 cells [2]; 1.25 μM, 24h (3.13% in the absence of LB100)): 8.51% | fraction of apoptotic sAML cells (SKM-1 cells [2]; 2.5 μM, 24h): 13.61% | fraction of apoptotic sAML cells (SKM-1 cells [2]; 5 μM, 24h): 37% | fraction of apoptotic sAML cells (SKM-1 cells [2]; 10 μM, 24h): 65.27% | rate of apoptosis (SKM-1 cells [2]; absence of z-VAD-FMK): 62% | rate of apoptosis (SKM-1 cells [2]; presence of pan-caspase inhibitor z-VAD-FMK): 16% | relative expression of miR-181b-1, increase (miR-181b-1 [3]): about 2 fold | reduction of the activity of PP2A (PP2A): up to 60% | IC50 (Kasumi-1): 4.38 µM | IC50 (U937): 3.44 µM | growth of SKM-1 cells, colony formation (SKM-1 cells [4]): dose-dependent inhibitory activity | CDCl2 and CDCl25C total- and phosphorylated-protein levels (SKM-1 cells [5]; 5 μM LB100, SKM-1): markedly downregulated | phosphorylated Bcl-2 and CamKII (SKM-1 cells [5]; after LB100 administration): increased | caspase-3 and PARP cleavage (SKM-1 cells [5]; immunoblotting, 24h exposure, SKM-1): cleavage in a concentration-dependent manner | Bcl-2 expression, immunoblot (SKM-1 cells [5]; in-vitro, SKM-1, 5 μM LB100): markedly downregulated | expression of the three PP2A subunits (PP2A-A, PP2A-B, PP2A-C) (SKM-1 cells [5]; western blot, 5 μM LB100 for 12 h): moderately decreased | levels of p-AKT (SKM-1 cells [5]; western blot, sAML cells): increased | Bcl-2 expression, immunohistochemistry (Bcl-2): markedly downregulated | tumor volume (SKM-1 xenografts): sharp decrease | G2/M phase cells (SKM-1 cells [6]; SKM-1 (13.4% before)): 31.5% | G0/G1 phase cells (SKM-1 cells [6]; SKM-1 (36.7% before)): 9.8% | miR-181b-1 in microRNA profiling (miR-181b-1 [7]): significantly up-regulated
